Reference: patent US7098246B2, “Natural compounds and their derivatives for the prevention and treatment of cardiovascular, hepatic and renal diseases and for cosmetic applications” (Puleva Biotech, S.A., priority 2002, dated 2006)

Key:
[1] = Stability against forced oxidation at 120° C. in an oily food matrix (refined oil, Rancimat)
Description: This was done by measuring the remaining amount of each of the compounds when these were subjected to forced oxidation at 120° C. Oxidation was done by passing a dry air current (˜20 I/h) through an aliquot of the sample (4 ml) placed in a reactor heated to 120° C. using a Metrohm-Herisau A. G Rancimat apparatus.
The solutions of all the compounds were prepared in refined oil. A total of 5 mg of II were dissolved in 5 g of refined oil, and finally 0.5 g of this solution were dissolved in. 5 g of refined oil. Similarly, solutions III and VIII were prepared in refined oil. Aliquots of 0.3 ml were collected at different times for each solution and were stored at −20° C. […] After introducing the sample, 6 ml of hexane, 6 ml of hexane/ethyl acetate (9:1) and 10 ml of methanol were passed through it, and then the methanolic fraction was concentrated to 1 ml volume. […] Once again, the methanolic phase was concentrated to 1 ml volume for analysis.

[2] = Absorption of hydroxytyrosol administered orally in human volunteers; assay type: in vivo; conditions: oral
Description: Pure hydroxytyrosol was obtained from olive leaves using standard extraction procedures compatible with the consumption of food products.
A 2.5 mg dose of hydroxytyrosol was administered per kg weight to 5 fasting healthy volunteers aged from 22–30 years who had not taken olive oil in their diet for at least two days before the study. Hydroxytyrosol dissolved in water was administered orally and afterwards blood samples were obtained at 0, 10, 20, 30, 60, 120 minutes. The plasma level of hydroxytyrosol and derived metabolites were determined by gas chromatography-mass spectometry using anthracene and napthol as internal standards.

[3] = Absorption of hydroxytyrosol and derivatives administered orally in mice (hydroxytyrosol in plasma); conditions: oral, oily solution, equivalent amounts (10 mg II, 13 mg III, 70 mg IX)
Text: Plasma was isolated from each blood sample by extraction with ethyl acetate and analysed by gas chromatography-mass spectometry.

| SMILES | remaining amount of compound during forced oxidation ([1]; 120° C., dry air current, after 10 hours, RP-HPLC) | time bioavailable after administration [2] | time of return of hydroxytyrosol plasma level to values similar to initial ones ([2]; 2.5 mg per kg weight in water) | time of maximum plasma level of hydroxytyrosol after administration ([2]; 2.5 mg per kg weight in water, fasting) | degradation state during forced oxidation ([1]; 120° C., after 10 hours) | Hydroxytyrosol in plasma, 15 min. ([3]; 15 min) | Hydroxytyrosol in plasma, 60 min. ([3]; 60 min) | stability against oxidation compared with hydroxytyrosol ([1]; forced oxidation at 120° C.) |
| --- | --- | --- | --- | --- | --- | --- | --- | --- |
| CCCCCCCCCCCCCCCCCCOc1ccc(CCO)cc1O [Compound VII, 2-(4-stearyloxy-3-hydroxyphenyl) ethanol] | 50% | – | – | – | – | – | – | – |
| OCCc1ccc(O)c(O)c1 [II, 2-(3,4-dihydroxyphenyl) ethanol] | – | at least 30 minutes | 30 min | 10 min | completely degraded | – | – | – |
| CC(=O)OCCc1ccc(O)c(O)c1 [III, 2-(3,4-dihydroxyphenyl) ethyl acetate] | – | – | – | – | completely degraded | 0.68 mg/L | 0.06 mg/L | takes longer to degrade than hydroxytyrosol (II) |
